CC(C)N1C(=O)N(c2ccccc2)CSC1=NC(C)(C)C
solubility (mole fraction)
Details	273.15 K	278.15 K	283.15 K	288.15 K	293.15 K	298.15 K	303.15 K	308.15 K	313.15 K	318.15 K
in DMF	0.0306	0.0389	0.0493	0.0608	0.0725	0.0871	0.104	0.122	0.141	0.162
in acetone	0.03	0.0361	0.0427	0.0504	0.0593	0.0699	0.0814	0.096	0.114	0.134
in acetonitrile	0.00534	0.00774	0.0101	0.0133	0.0171	0.0219	0.0284	0.0354	0.0448	0.0564
in ethanol	0.00539	0.007	0.00917	0.0116	0.0146	0.0182	0.0228	0.0276	0.0342	0.0425
in ethyl acetate	0.0372	0.0465	0.0561	0.0679	0.0815	0.0971	0.116	0.136	0.16	0.187
in isopropanol	0.00586	0.00785	0.0103	0.0131	0.0165	0.0207	0.0254	0.031	0.0376	0.0454
in methanol	0.00377	0.00497	0.0064	0.00797	0.00998	0.0123	0.0154	0.0184	0.0225	0.0272
in n-butanol	0.00627	0.00908	0.0127	0.0167	0.0218	0.0281	0.0364	0.045	0.0577	0.0714
in n-octanol	0.00824	0.0114	0.0152	0.0197	0.0251	0.0321	0.0404	0.0505	0.063	0.0789
in n-propanol	0.00564	0.00798	0.011	0.0148	0.019	0.0254	0.0323	0.0414	0.0528	0.0668
in toluene	0.053	0.0651	0.0782	0.0924	0.11	0.128	0.15	0.172	0.198	0.227
in water	2.84e-05	3.48e-05	4.18e-05	5.08e-05	6.05e-05	7.26e-05	8.54e-05	0.000101	0.00012	0.000144

Reference: BigSolDB 2.1
